Source: PubChem BioAssay AID248 (DTP/NCI, 2004)
Several values for one entry are separate records, joined by “and”; a condition that tells them apart may be missing. Equal values may be shown once. Inconclusive results and toxic doses are left out. Rule as the data show it: active = T/C of 150% or more; inactive = T/C below 125%.

System: L1210 leukemia ip in BDF1 mice, survival T/C
Test: NCI In Vivo Anticancer Drug Screen. Data for tumor model L1210 Leukemia (intraperitoneal) in B6D2F1 (BDF1) mice
Settings: endpoint: mean survival time, higher = longer survival
In short: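 Survival endpoint. Drug-treated group vs vehicle group, expressed as T divided by C. Tumor passaged by transplantation.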

[1] = dose: 100.0 mg/kg/injection, schedule: Q01DX001 (ip), vehicle: saline
[2] = dose: 100.0 mg/kg/injection, schedule: Q01DX001 (ip), vehicle: carboxymethylcellulose (CMC)
[3] = dose: 200.0 mg/kg/injection, schedule: Q01DX001 (ip), vehicle: carboxymethylcellulose (CMC)
[4] = dose: 200.0 mg/kg/injection, schedule: Q01DX001 (ip), vehicle: saline
[5] = dose: 400.0 mg/kg/injection, schedule: Q01DX001 (ip), vehicle: saline
[6] = dose: 400.0 mg/kg/injection, schedule: Q01DX001 (ip), vehicle: carboxymethylcellulose (CMC)
[7] = dose: 100.0 mg/kg/injection, schedule: Q01DX009 (ip), vehicle: Klucel (hydroxypropylcellulose) (HPC)
[8] = dose: 200.0 mg/kg/injection, schedule: Q01DX009 (ip), vehicle: Klucel (hydroxypropylcellulose) (HPC)
[9] = dose: 400.0 mg/kg/injection, schedule: Q01DX009 (ip), vehicle: Klucel (hydroxypropylcellulose) (HPC)
[10] = dose: 100.0 mg/kg/injection, schedule: Q04DX003 (ip), vehicle: Klucel (hydroxypropylcellulose) (HPC)
[11] = dose: 200.0 mg/kg/injection, schedule: Q04DX003 (ip), vehicle: Klucel (hydroxypropylcellulose) (HPC)
[12] = dose: 400.0 mg/kg/injection, schedule: Q04DX003 (ip), vehicle: Klucel (hydroxypropylcellulose) (HPC)

Measured: T/C

NC(=S)c1[nH]cnc1N
inactive: dose: 27.0 mg/kg/injection, schedule: Q01DX015 (ip), vehicle: saline 95 % of control | dose: 40.0 mg/kg/injection, schedule: Q01DX015 (ip), vehicle: saline 93 % of control | dose: 60.0 mg/kg/injection, schedule: Q01DX015 (ip), vehicle: saline 101 % of control | dose: 100.0 mg/kg/injection, schedule: Q01DX001 (ip), vehicle: other 98 % of control | [1] 110 % of control | dose: 200.0 mg/kg/injection, schedule: Q01DX001 (ip), vehicle: other 95 % of control | dose: 400.0 mg/kg/injection, schedule: Q01DX001 (ip), vehicle: other 103 % of control

CCCCCCCCCCCCCCCC(=O)Nc1ccc(Cl)c(Cl)c1
inactive: dose: 50.0 mg/kg/injection, schedule: Q04DX003 (ip), vehicle: carboxymethylcellulose (CMC) 87 % of control | [2] 89 % of control | dose: 100.0 mg/kg/injection, schedule: Q01DX009 (ip), vehicle: carboxymethylcellulose (CMC) 102 % of control and 89 % of control | dose: 100.0 mg/kg/injection, schedule: Q04DX002 (ip), vehicle: other 92 % of control and 101 % of control | dose: 100.0 mg/kg/injection, schedule: Q04DX003 (ip), vehicle: carboxymethylcellulose (CMC) 95 % of control | [3] 90 % of control | dose: 200.0 mg/kg/injection, schedule: Q01DX009 (ip), vehicle: carboxymethylcellulose (CMC) 96 % of control and 86 % of control | dose: 200.0 mg/kg/injection, schedule: Q04DX002 (ip), vehicle: other 93 % of control and 89 % of control | dose: 200.0 mg/kg/injection, schedule: Q04DX003 (ip), vehicle: carboxymethylcellulose (CMC) 87 % of control | dose: 400.0 mg/kg/injection, schedule: Q01DX009 (ip), vehicle: carboxymethylcellulose (CMC) 93 % of control and 86 % of control | dose: 400.0 mg/kg/injection, schedule: Q04DX002 (ip), vehicle: other 93 % of control and 94 % of control

C=CC(=O)N1c2ccccc2N(C(=O)C=C)C(C)C1C (centres undefined)
inactive: [1] 112 % of control | [4] 104 % of control | [5] 98 % of control

Cc1ccc(NC(=O)NCCCCl)cc1
inactive: dose: 50.0 mg/kg/injection, schedule: Q01DX001 (ip), vehicle: carboxymethylcellulose (CMC) 98 % of control | [2] 110 % of control | [3] 98 % of control | [6] 106 % of control

O=C(O)c1cc(N2C(=O)C=CC2=O)cc(N2C(=O)C=CC2=O)c1
inactive: dose: 11.1 mg/kg/injection, schedule: Q01DX Z (ip), vehicle: methylcellulose (MC) 102 % of control | dose: 16.6 mg/kg/injection, schedule: Q01DX Z (ip), vehicle: methylcellulose (MC) 102 % of control | dose: 25.0 mg/kg/injection, schedule: Q01DX Z (ip), vehicle: methylcellulose (MC) 94 % of control

CCCCNC(=O)C(=O)c1ccccc1NC(C)=O
inactive: [7] 86 % of control | [8] 87 % of control | [9] 97 % of control

CCOP(=O)(OCC)C(c1ccccc1)C(c1ccccc1)c1ccccc1 (centres undefined)
inactive: dose: 100.0 mg/kg/injection, schedule: Q04DX003 (ip), vehicle: other 97 % of control | dose: 200.0 mg/kg/injection, schedule: Q04DX003 (ip), vehicle: other 93 % of control | dose: 400.0 mg/kg/injection, schedule: Q04DX003 (ip), vehicle: other 101 % of control

CCC[n+]1ccc(C#N)cc1
inactive: dose: 75.0 mg/kg/injection, schedule: Q01DX001 (ip), vehicle: saline 106 % of control | dose: 150.0 mg/kg/injection, schedule: Q01DX001 (ip), vehicle: saline 89 % of control

COc1ccc(-c2ccc(OC)cc2OC)c(OC)c1
inactive: [2] 112 % of control | [3] 107 % of control | [6] 112 % of control

O=[N+]([O-])c1ccc(-c2cnc(Br)c3ccccc23)cc1
inactive: dose: 25.0 mg/kg/injection, schedule: Q04DX003 (ip), vehicle: DMSO 96 % of control | dose: 50.0 mg/kg/injection, schedule: Q04DX003 (ip), vehicle: DMSO 93 % of control | dose: 100.0 mg/kg/injection, schedule: Q04DX003 (ip), vehicle: DMSO 93 % of control | dose: 200.0 mg/kg/injection, schedule: Q04DX003 (ip), vehicle: DMSO 93 % of control | dose: 400.0 mg/kg/injection, schedule: Q04DX003 (ip), vehicle: DMSO 93 % of control

CCCCCCCCCCCCCCCCC(Oc1ccc(Cl)cc1Cl)C(=O)O (centres undefined)
inactive: [10] 102 % of control | [11] 98 % of control | [12] 101 % of control

CN(C)C(=O)Nc1ccc(C#N)cc1
inactive: dose: 100.0 mg/kg/injection, schedule: Q04DX002 (ip), vehicle: Klucel (hydroxypropylcellulose) (HPC) 89 % of control | dose: 200.0 mg/kg/injection, schedule: Q04DX002 (ip), vehicle: Klucel (hydroxypropylcellulose) (HPC) 103 % of control | dose: 400.0 mg/kg/injection, schedule: Q04DX002 (ip), vehicle: Klucel (hydroxypropylcellulose) (HPC) 106 % of control

O=C(Nc1nc2ccccc2s1)C(F)(F)F
inactive: [1] 102 % of control | [4] 93 % of control | [5] 102 % of control

COc1ccc2c(c1)CCC1C2CCC2(C)C1CCC2(C)N(C)C (centres undefined)
inactive: dose: 50.0 mg/kg/injection, schedule: Q01DX001 (sc), vehicle: steriod suspending solution 104 % of control

Cc1ccccc1N=Nc1c(O)[nH]c2ccccc12
inactive: dose: 100.0 mg/kg/injection, schedule: Q01DX001 (ip), vehicle: acetone 93 % of control | dose: 200.0 mg/kg/injection, schedule: Q01DX001 (ip), vehicle: acetone 95 % of control | dose: 400.0 mg/kg/injection, schedule: Q01DX001 (ip), vehicle: acetone 96 % of control

CSc1nc(SC)c2[nH]cnc2n1
inactive: [7] 100 % of control | [8] 105 % of control | [9] 98 % of control

ClC(Cl)(Cl)c1ccc(C(Cl)(Cl)Cl)cc1
inactive: dose: 12.5 mg/kg/injection, schedule: Q01DX009 (ip), vehicle: Klucel (hydroxypropylcellulose) (HPC) 96 % of control | dose: 25.0 mg/kg/injection, schedule: Q01DX009 (ip), vehicle: Klucel (hydroxypropylcellulose) (HPC) 104 % of control | dose: 50.0 mg/kg/injection, schedule: Q01DX009 (ip), vehicle: Klucel (hydroxypropylcellulose) (HPC) 94 % of control and 97 % of control | [7] 94 % of control | [10] 105 % of control | [11] 91 % of control

O=C1NC(=O)C(c2ccco2)N1 (centres undefined)
inactive: [10] 105 % of control | [11] 103 % of control | [12] 114 % of control

CC(C)N(CCC#N)C(=S)Nc1cccc(C(F)(F)F)c1
inactive: dose: 100.0 mg/kg/injection, schedule: Q01DX009 (ip), vehicle: other 102 % of control | dose: 200.0 mg/kg/injection, schedule: Q01DX009 (ip), vehicle: other 104 % of control | dose: 400.0 mg/kg/injection, schedule: Q01DX009 (ip), vehicle: other 103 % of control

CS(=O)(=O)OCCN1C(=O)NC(c2ccccc2)(c2ccccc2)C1=O
inactive: [1] 94 % of control | dose: 100.0 mg/kg/injection, schedule: Q01DX009 (ip), vehicle: saline 97 % of control | dose: 100.0 mg/kg/injection, schedule: Q04DX003 (ip), vehicle: saline 107 % of control | [4] 94 % of control | dose: 200.0 mg/kg/injection, schedule: Q01DX009 (ip), vehicle: saline 96 % of control | dose: 200.0 mg/kg/injection, schedule: Q04DX003 (ip), vehicle: saline 93 % of control | [5] 100 % of control | dose: 400.0 mg/kg/injection, schedule: Q01DX009 (ip), vehicle: saline 97 % of control | dose: 400.0 mg/kg/injection, schedule: Q04DX003 (ip), vehicle: saline 101 % of control

CC(=O)Oc1ccc([N+](=O)[O-])cc1OC(C)=O
inactive: dose: 75.0 mg/kg/injection, schedule: Q01DX001 (ip), vehicle: water 92 % of control | dose: 150.0 mg/kg/injection, schedule: Q01DX001 (ip), vehicle: water 92 % of control | dose: 300.0 mg/kg/injection, schedule: Q01DX001 (ip), vehicle: water 95 % of control
